This is an account of results in ChEMBL document CHEMBL1201862, “PubChem BioAssay data set” (2004).

Test systems include CCRF-CEM; DLD-1; HCT-116; HOP-62; IGROV-1; LOX IMVI; M14; Malme-3M; OVCAR-4; OVCAR-5; OVCAR-8; RXF 393; TK-10; U-251; UACC-62; MCF7; SF-539; SK-MEL-2.
Holding throughout (assay): DTP human tumour cell line panel, 48 h

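All cell lines were grown in 96-well plates and treated with compound for 48 hours. The concentration for 50% growth inhibition is given as GI50.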 Calls of active or inactive are those of the source. Cut-off read from the data, not from the text of the source: active = GI50 up to about 1.1 µM and inactive = higher. Bounds are passed on as bounds.

Broadly, the GI50 is the concentration at which growth is held to half of that of the control.

Take `Cc1ccc(-c2cc(-c3ccco3)c(C#N)c(=O)n2C2OC(CO)C(O)C(O)C2O)cc1` (stereo unspecified): the GI50 in the assay with CCRF-CEM is 66.2 µM (inactive); in the assay on DLD-1 it was 67.6 µM (inactive); in the assay with HCT-116, 94.8 µM (inactive); with HOP-62, 49.5 µM (inactive); with IGROV-1, 49.1 µM (inactive); in the assay on LOX IMVI, 68.1 µM (inactive). Also, the GI50 with M14 is 67.5 µM (inactive); in the assay with Malme-3M, 41 µM (inactive); in the assay with OVCAR-4 it was 35.7 µM (inactive); in the assay on OVCAR-5, > 100 µM (inactive); with OVCAR-8 it was 32.2 µM (inactive); with RXF 393, 48.3 µM (inactive). Further, the GI50 with TK-10 was 45.3 µM (inactive); in the assay on U-251, 33.3 µM (inactive); in the assay with UACC-62, 42.3 µM (inactive).
Regarding `O=C(CC(C(=O)c1cccs1)c1ccc2c(c1)OCO2)c1ccc(Br)cc1` (stereo unspecified), the GI50 with CCRF-CEM, in the assay on HOP-62, in the assay with IGROV-1, with M14, in the assay with MCF7 and with Malme-3M was > 100 µM (inactive) throughout. Moreover, the GI50 in the assay with OVCAR-4, in the assay on OVCAR-8, in the assay with TK-10, in the assay on U-251 and in the assay on UACC-62 was > 100 µM (inactive) each time.
Regarding `COc1ccc(-c2cc(-c3cc(OC)c(OC)c(OC)c3)cc(-c3cc4ccccc4oc3=O)n2)cc1`, the GI50 in the assay with CCRF-CEM is > 100 µM (inactive); with HCT-116 it was 4.48 µM (inactive); in the assay with HOP-62, 2.25 µM (inactive); in the assay on IGROV-1, 7.06 µM (inactive); with LOX IMVI, 12.7 µM (inactive); in the assay on M14 it was 16.6 µM (inactive). Besides, the GI50 is 16.7 µM (inactive) in the assay with MCF7; 5.77 µM (inactive) in the assay with Malme-3M; 3.94 µM (inactive) with OVCAR-4; 4.38 µM (inactive) in the assay on OVCAR-8; 3.24 µM (inactive) in the assay with RXF 393; 2.76 µM (inactive) in the assay with SF-539. For the same compound, the GI50 is 20 µM (inactive) in the assay with SK-MEL-2, 8.18 µM (inactive) in the assay on TK-10, 3.54 µM (inactive) with U-251 and 12.5 µM (inactive) with UACC-62.
`Clc1cc2c(c(CSC3=NCN(CC4CC4)CN3)c1)OCOC2`: the GI50 was 5.35 µM (inactive) in the assay on CCRF-CEM; 18.5 µM (inactive) in the assay with HCT-116; 21.9 µM (inactive) with HOP-62; 35.9 µM (inactive) in the assay on IGROV-1; 25.1 µM (inactive) with LOX IMVI; 13.8 µM (inactive) in the assay with M14. The GI50 in the assay on MCF7 was 20.8 µM (inactive); in the assay on Malme-3M it was 18.2 µM (inactive); in the assay on OVCAR-4, 34.3 µM (inactive); in the assay on OVCAR-5 it was 21 µM (inactive); with OVCAR-8, 26.9 µM (inactive); in the assay with RXF 393, 17.3 µM (inactive). In addition, the GI50 with SF-539 is 20.3 µM (inactive); in the assay with SK-MEL-2, 19.1 µM (inactive); with TK-10, 17.2 µM (inactive); with U-251, 19.6 µM (inactive); in the assay with UACC-62 it was 17.9 µM (inactive).
Turning to `COc1ccc2c(c1)CCN=C2Cc1cc(OC)c(OC)cc1CCCl`, the GI50 was > 100 µM (inactive) with CCRF-CEM; 44.5 µM (inactive) in the assay on HCT-116; 3.08 µM (inactive) in the assay with HOP-62; 52.4 µM (inactive) with IGROV-1; 31.9 µM (inactive) in the assay with LOX IMVI; 21.2 µM (inactive) in the assay with M14. In addition, the GI50 with MCF7 is 52.2 µM (inactive); with Malme-3M, 27.4 µM (inactive); in the assay on OVCAR-4, > 100 µM (inactive); in the assay on OVCAR-5 it was 17.3 µM (inactive); in the assay on OVCAR-8, > 100 µM (inactive); in the assay on RXF 393, 24.9 µM (inactive). Further, the GI50 is 16.2 µM (inactive) in the assay with SF-539; > 100 µM (inactive) with SK-MEL-2; 35.7 µM (inactive) in the assay with TK-10; 86.7 µM (inactive) in the assay on U-251; 53.8 µM (inactive) with UACC-62.
With `N#CC1(C#N)C(=O)c2ccncc2C1=O`, the GI50 in the assay with CCRF-CEM, with HCT-116, in the assay with IGROV-1, in the assay on M14, with MCF7 and in the assay on Malme-3M was > 100 µM (inactive) each time. Besides, the GI50 with OVCAR-4, with OVCAR-5, with OVCAR-8, in the assay on RXF 393, in the assay with SF-539 and in the assay with SK-MEL-2 was > 100 µM (inactive) in each case. Also, the GI50 in the assay on U-251 and in the assay with UACC-62 was > 100 µM (inactive) throughout.
`C=C(C)[C@@H]1CCC2=C[C@H](CC(C)=CC3=CC(C)=C(O3)[C@@H]1OC)OC2=O`: the GI50 in the assay with CCRF-CEM was > 100 µM (inactive); with IGROV-1, > 100 µM (inactive); in the assay on M14, 41.5 µM (inactive); with MCF7, 38.8 µM (inactive); in the assay with Malme-3M it was > 100 µM (inactive); in the assay with OVCAR-4, > 100 µM (inactive). Further, the GI50 with OVCAR-5 is > 100 µM (inactive); in the assay on OVCAR-8 it was 40.7 µM (inactive); in the assay with RXF 393, 23.8 µM (inactive); in the assay on SF-539, 77.3 µM (inactive); in the assay on SK-MEL-2, 20.9 µM (inactive); in the assay with TK-10, 85.3 µM (inactive). Further, the GI50 in the assay on U-251 was 33.1 µM (inactive); in the assay with UACC-62 it was 29.7 µM (inactive).
As for `CCOC(=O)c1ccc(N(CCOS(=O)(=O)c2ccc(C)cc2)CCOS(=O)(=O)c2ccc(C)cc2)cc1`, the GI50 in the assay on CCRF-CEM was 2.47 µM (inactive); in the assay with HCT-116, 27.3 µM (inactive); in the assay on IGROV-1 it was > 100 µM (inactive); in the assay with LOX IMVI, > 100 µM (inactive); in the assay on M14, > 100 µM (inactive); with MCF7 it was 7.05 µM (inactive). Also, the GI50 in the assay on Malme-3M was > 100 µM (inactive); with OVCAR-4, 32.8 µM (inactive); with OVCAR-5, > 100 µM (inactive); with OVCAR-8, > 100 µM (inactive); in the assay with RXF 393, 4.49 µM (inactive); in the assay with SF-539, < 0.01 µM (active). Besides, the GI50 in the assay on SK-MEL-2 is 19.8 µM (inactive); in the assay on TK-10, > 100 µM (inactive); in the assay on U-251, 6.76 µM (inactive); in the assay with UACC-62, > 100 µM (inactive).
As for `Cc1ccc(Nc2n[nH]c(NS(=O)(=O)c3cc(C(=O)Nc4ccc(Cl)cc4)c(Cl)cc3S)n2)cc1`, the GI50 was > 100 µM (inactive) in the assay on CCRF-CEM; > 100 µM (inactive) with HCT-116; > 100 µM (inactive) in the assay on HOP-62; > 100 µM (inactive) in the assay on IGROV-1; 48.4 µM (inactive) with LOX IMVI; > 100 µM (inactive) in the assay with M14. Further, the GI50 in the assay with MCF7 is > 100 µM (inactive); in the assay with Malme-3M, 50.5 µM (inactive); in the assay on OVCAR-4, > 100 µM (inactive); with OVCAR-5, > 100 µM (inactive); in the assay on OVCAR-8, > 100 µM (inactive); in the assay on RXF 393, 62.2 µM (inactive). Also, the GI50 with SF-539 was > 100 µM (inactive); in the assay on TK-10, > 100 µM (inactive); with U-251, 54.8 µM (inactive); in the assay with UACC-62, > 100 µM (inactive).
